Measured values published in the NIST ThermoML archive (doi:10.1021/je060200b).

Assay: xn = mol fraction of the nth substance listed
Settings: 101 kPa, Liquid; for speed of sound: Pulse-echo method; for mass density: Vibrating tube method

BrCCCCCBr [1,5-dibromopentane] + CCCCCCC
Settings | mass density [kg/m3] | speed of sound [m/s]
292.38 K, x1 = 1 | – | 1149.5
292.52 K, x1 = 0.1006 | 779.97 | –
292.52 K, x1 = 0.1994 | 875.92 | –
292.52 K, x1 = 0.3003 | 975.53 | –
292.52 K, x1 = 0.4008 | 1075.8 | –
292.52 K, x1 = 0.5004 | 1176.68 | –
292.52 K, x1 = 0.5999 | 1278.62 | –
292.52 K, x1 = 0.6995 | 1381.6 | –
292.52 K, x1 = 0.8002 | 1487.16 | –
292.52 K, x1 = 0.899 | 1591.59 | –
292.52 K, x1 = 1 | 1699.54 | –
292.56 K, x1 = 0.4 | – | 1103.5
292.59 K, x1 = 0.5001 | – | 1104.2
292.65 K, x1 = 0.2 | – | 1116.5
292.68 K, x1 = 0.3001 | – | 1107.2
292.73 K, x1 = 0.7999 | – | 1126.3
292.75 K, x1 = 0.8998 | – | 1137.3
292.76 K, x1 = 0.6 | – | 1108.4
292.8 K, x1 = 0.6997 | – | 1116.2
292.83 K, x1 = 0.1 | – | 1131.1
298.05 K, x1 = 0.1006 | 775.18 | –
298.05 K, x1 = 0.1994 | 870.87 | –
298.05 K, x1 = 0.3003 | 969.84 | –
298.05 K, x1 = 0.4008 | 1070.23 | –
298.05 K, x1 = 0.5004 | 1170.91 | –
298.05 K, x1 = 0.5999 | 1272.47 | –
298.05 K, x1 = 0.6995 | 1375.26 | –
298.05 K, x1 = 0.8002 | 1480.47 | –
298.05 K, x1 = 0.899 | 1584.66 | –
298.05 K, x1 = 1 | 1691.87 | –
298.37 K, x1 = 1 | – | 1133
298.59 K, x1 = 0.5001 | – | 1084.5
298.62 K, x1 = 0.4 | – | 1082.8
298.63 K, x1 = 0.2 | – | 1093.8
298.67 K, x1 = 0.3001 | – | 1085.7
298.73 K, x1 = 0.8998 | – | 1120.2
298.76 K, x1 = 0.7999 | – | 1108.6
298.77 K, x1 = 0.6 | – | 1089.6
298.8 K, x1 = 0.6997 | – | 1098.1
298.83 K, x1 = 0.1 | – | 1106.8
303.06 K, x1 = 0.1006 | 770.79 | –
303.06 K, x1 = 0.1994 | 866 | –
303.06 K, x1 = 0.3003 | 964.71 | –
303.06 K, x1 = 0.4008 | 1064.63 | –
303.06 K, x1 = 0.5004 | 1165.02 | –
303.06 K, x1 = 0.5999 | 1266.37 | –
303.06 K, x1 = 0.6995 | 1368.9 | –
303.06 K, x1 = 0.8002 | 1474.36 | –
303.06 K, x1 = 0.899 | 1578.04 | –
303.06 K, x1 = 1 | 1684.89 | –
303.39 K, x1 = 1 | – | 1119.3
303.59 K, x1 = 0.2 | – | 1075.1
303.63 K, x1 = 0.3001 | – | 1068
303.64 K, x1 = 0.4 | – | 1065.8
303.64 K, x1 = 0.5001 | – | 1068.3
303.67 K, x1 = 0.8998 | – | 1106.3
303.71 K, x1 = 0.7999 | – | 1094.2
303.72 K, x1 = 0.6 | – | 1074.2
303.78 K, x1 = 0.6997 | – | 1083.1
303.86 K, x1 = 0.1 | – | 1086.5
308.08 K, x1 = 0.1006 | 766.31 | –
308.08 K, x1 = 0.1994 | 861.23 | –
308.08 K, x1 = 0.3003 | 959.36 | –
308.08 K, x1 = 0.4008 | 1058.93 | –
308.08 K, x1 = 0.5004 | 1159.11 | –
308.08 K, x1 = 0.5999 | 1260.5 | –
308.08 K, x1 = 0.6995 | 1362.98 | –
308.08 K, x1 = 0.8002 | 1467.91 | –
308.08 K, x1 = 0.899 | 1571.77 | –
308.08 K, x1 = 1 | 1678.03 | –
308.38 K, x1 = 1 | – | 1105.8
308.55 K, x1 = 0.2 | – | 1056.4
308.58 K, x1 = 0.4 | – | 1049.1
308.58 K, x1 = 0.5001 | – | 1052.4
308.67 K, x1 = 0.3001 | – | 1050
308.67 K, x1 = 0.8998 | – | 1092.3
308.69 K, x1 = 0.6 | – | 1058.9
308.7 K, x1 = 0.7999 | – | 1079.8
308.82 K, x1 = 0.6997 | – | 1068.1
308.84 K, x1 = 0.1 | – | 1066.7
314.36 K, x1 = 1 | – | 1089.7
314.52 K, x1 = 0.5001 | – | 1033.4
314.54 K, x1 = 0.3001 | – | 1029.3
314.61 K, x1 = 0.2 | – | 1033.8
314.66 K, x1 = 0.1006 | 760.22 | –
314.66 K, x1 = 0.1994 | 854.58 | –
314.66 K, x1 = 0.3003 | 952.58 | –
314.66 K, x1 = 0.4008 | 1052 | –
314.66 K, x1 = 0.5004 | 1151.72 | –
314.66 K, x1 = 0.5999 | 1252.55 | –
314.66 K, x1 = 0.6995 | 1354.65 | –
314.66 K, x1 = 0.8002 | 1459.75 | –
314.66 K, x1 = 0.899 | 1562.81 | –
314.66 K, x1 = 1 | 1668.75 | –
314.67 K, x1 = 0.4 | – | 1028.8
314.68 K, x1 = 0.7999 | – | 1062.8
314.7 K, x1 = 0.8998 | – | 1075.6
314.75 K, x1 = 0.6 | – | 1040.2
314.82 K, x1 = 0.6997 | – | 1050.3
314.83 K, x1 = 0.1 | – | 1042.8
